Measured values: patent publication US9278081B2, “Extracts from Eucalyptus camaldulensis for the treatment of hyperglycemia and hypertension” (The University of the West Indies, priority 2012, dated 2016)
“And” between values parts separate entries of the source, which are not always exact repeats. Identical values can stand only once. “Also recorded” adds a separate entry of the source.

Legend:
[1] = system: normoglycaemic Sprague-Dawley rats; experiment: Oral Glucose Tolerance Test (OGTT), samples administered intravenously; format: in vivo; conditions: for effect on blood glucose concentration (in words): IV OGTT vs DMSO control and/or metformin; for Hypoglycaemic effect compared with control: combinations of oleic:palmitic acids, IV OGTT vs DMSO
Description: Crude hexane, ethyl acetate, and methanol extracts (50 mg/kg BW) were administered intravenously to normoglycaemic Sprague-Dawley rats. The Oral Glucose Tolerance Test (OGTT) was then carried out using the Accu-Check Advantage II glucose kit to examine their effect on blood glucose concentration. […] A comparison was carried out using metformin (25 mg/kg BW).
Crude hexane, ethyl acetate, and methanol extracts (50 mg/kg BW) were administered intravenously to normoglycaemic Sprague-Dawley rats. The Oral Glucose Tolerance Test (OGTT) was then carried out using the Accu-Check Advantage II glucose kit to examine their effect on blood glucose concentration.
Crude hexane, ethyl acetate, and methanol extracts (50 mg/kg BW) were administered intravenously to normoglycaemic Sprague-Dawley rats.
The dosage of the extracted fr1dbe (30 mg/kg BW) and the glucose loads (1.75 g/kg BW were administered to the rats intravenously and orally, respectively. The extract was administered intravenously in order to reduce the amounts of sample that were used for the bioassays. The volume of the negative control/carrier agent (DMSO) used was approximately 0.3 mL.
In order to determine the efficacy of the isolated compounds, a known oral hypoglycaemic drug, metformin was used to do a comparison. Metformin was obtained from Sigma-Aldrich (Cat. No. d15, 095-9) and OGTTs were done via intravenous (FIGS. 7-13) and oral administration (FIGS. 14-16).

rats [2] = experiment: Haemodynamic parameters (blood pressure and heart rate), non-invasive CODA machine; format: in vivo; conditions: for effect on mean arterial blood pressure (in words): vs DMSO; for effect on systolic blood pressure (in words): vs DMSO and captopril
Text: A non-invasive method was used to measure the blood pressure and heart rate of the rats using the CODA machine from Kent Scientific Corporation. The rats were placed in a restraint (rat holder), to reduce agitation, and then placed on a warming pad of the machine (to reduce anxiety). The occlusion and volume pressure recording cuffs (O-cuff and VPR-cuff respectively) were placed onto the tail of the animal in that order respectively, in order to record the readings. The O-cuff terminates blood flow to the tail and then dilates slowly allowing for the physiological readings to be obtained from the returning blood flow, which is determined by the VPR sensor. The VPR-cuff is then used to measure the arterial pulsations as blood returns to the tail and it begins to swell. As the tail begins to swell the systolic blood pressure is measured, while the diastolic blood pressure is calculated when swelling stops.
The rats were trained within the restrain for three to four days prior to the measurements in order to reduce errors and an additional acclimatization period was done to allow the rats to relax prior to the basal blood pressure readings. […] The systolic and diastolic pressures, mean arterial pressure and the heart rate per minute was measured and about 20-25 readings were recorded and timed for approximately 30 minute including an allowance for acclimatization. […] Non-invasive blood pressure Measurement in Mice. […] Humana Press, which is herein incorporated by reference in its entirety.
A non-invasive method was used to measure the blood pressure and heart rate of the rats using the CODA-6-non-invasive machine from Kent Scientific Corporation. The rats were placed in a restraint (rat holder), to reduce agitation, which was then placed on a warming pad of the machine (to reduce anxiety). The occlusion and volume pressure recording cuffs (O-cuff and VPR-cuff respectively) were placed on to the tail of the animal in that order respectively, in order to record the readings. The O-cuff terminates blood flow to the tail and then dilates slowly allowing for the physiological readings to be obtained from the returning blood flow which is determined by the VPR sensor. The VPR-cuff then measured the arterial pulsations as blood returns to the tail and begins to swell. As the tail begins to swell the systolic blood pressure is measured, while the diastolic blood pressure is calculated when swelling stops.
The systolic and diastolic blood pressure, mean arterial pressure and the heart rate per minute was measured and about 20-25 readings were recorded and timed for approximately 30 minutes including acclimatization (FIGS. 17-28). […] Non-invasive blood pressure Measurement in Mice. […] Humana Press, which is herein incorporated by reference in its entirety.

[3] = system: normoglycaemic Sprague-Dawley rats; experiment: Oral Glucose Tolerance Test (OGTT), samples administered orally (gavage); format: in vivo; conditions: 900 mg/kg BW orally vs water
Description: The hypoglycaemic principles of E. camaldulensis were also administered orally. Preliminary OGTT experiments at 200 and 500 mg/kg BW were done, and as a result the dosage was increased to 700 and 900 mg/kg BW. The glucose tolerance curves (GTC) were obtained similarly to the OGTT done via intravenous administration, in that the compound was administered after the fasting blood sample was obtained, however via a oral gavage (FIGS. 14-16).
A comparison was done of the oral administration of the fatty acids with the respective oil on the blood glucose concentration by using the OGTT done in order to deduce their effect. Oleic and palmitic acids are major constituents of olive oil and coconut oil respectively. As such, comparisons were made after OGTTs were carried out to determine the effect of olive oil, coconut oil and the combined product (2.3 olive oil:1 coconut oil), on blood glucose concentration.
An analysis of glucose tolerance curves to compare olive oil, FR2DBS (oleic acid) and the combined oil (FR2DBW; 2.3 olive oil:1 coconut oil) at 900 mg/kg BW vs the control (water) all administered orally, was conducted. […] See also FIG. 29.

[4] = general description of eicosane; cited from earlier work
rats [5] = experiment: Post-prandial blood insulin level, Mercodia ELISA; format: in vivo; conditions: 30 mg/kg BW IV in DMSO
Description: This was carried out using the Mercodia ELISA Diagnostic kit in order to deduce the plasma insulin and glucagon levels respectively. These levels were used to determine the effect of the compound fr1dbe, on glucose homeostasis, when compared with a positive methformin and a DMSO negative control.
The samples were administered intravenously and orally at their respective dosages. After 15 minutes 75 mg/kg BW of sodium pentabarbitol was administered to the rats via an intraperitoneal injection. Blood samples were then obtained from the renal artery of the rats and collected in the (red) vacutainer for the serum sample. The samples were then centrifuged at 3,000 r.p.m. for 10 minutes and stored at −20° C. until used.
The Mercodia ELISA is a direct technique utilizing two monoclonal antibodies of the insulin molecule, one of which binds to the microtitre well, while the other binds to the insulin within the sample. When the unbound antibody is removed, a reaction with 3,3′,5,5′-tetramethylbenzidine aids in detection and spectophotometric analysis after the reaction is stopped.
The enzyme conjugate solution and wash buffer solution were prepared prior to the experiment. 10 μL of the calibrators, samples and controls were pipetted into the microtitre wells in duplicate. […] The ELISA plate was read immediately at an optical density at 450 nm and the results calculated. […]

Solubility = format: physicochemical
[6] = 30 mg/kg BW intravenously, 90 minute interval (glycaemic peak)
[7] = 50 mg/kg BW, 10 minute interval
[8] = 50 mg/kg BW, 20 minute interval
[9] = 30 mg/kg BW, 10 minute interval
[10] = 30 mg/kg BW, 15 minute interval
[11] = 30 mg/kg BW, 20 minute interval

In the case of CCCCCCCCCCCCCCCC(=O)O [FR1DBY, palmitic acid], the blood glucose concentration [1, 6] is reported as 5.4 ± 0.163 mmol/L, the “difference in blood glucose from the control” value ([1]; 50 mg/kg BW IV, 90 minute interval, vs DMSO) is reported as 1.06 mmol/L and the blood glucose concentration ([1]; 50 mg/kg BW intravenously, 90 minutes interval) is reported as 5.26 ± 0.183 mmol/L. The “effect on blood glucose concentration (in words)” value [1] was “same effect as Metformin”, the “effect on blood glucose concentration (in words)” value ([1]; listed as commercially available palmitic acid) was “able to significantly lower the blood glucose concentration” and the “more effective dosage (hypoglycaemic effect)” value ([1]; IV OGTT, dose comparison) was 50 mg/kg BW. For the same compound, the “Hypoglycaemic effect compared with control” value [1] was “Significant”, the “diastolic blood pressure (DBP)” value (rats [2]; [7]) was 81.93±1.74 mmHg and the heart rate (rats [2]; [7]) was 372.4 ± 3.07 beats/min. For the same compound, the “mean arterial pressure (MAP)” value (rats [2]; [7]) was 95.67±1.77 mmHg, the “systolic blood pressure (SBP)” value (rats [2]; [7]) was 123.42±1.27 mmHg and the “systolic blood pressure (SBP)” value (rats [2]; 50 mg/kg BW, 15 minute interval) was 139.0±3.5 mmHg. For the same compound, the “diastolic blood pressure (DBP)” value (rats [2]; [8]) was 93.79±3.14 mmHg, the “mean arterial pressure (MAP)” value (rats [2]; [8]) was 104.23±3.08 mmHg and the “effect on blood glucose level (in words)” value [3] was “able to significantly lower the area under the glucose tolerance curve; also recorded: able to lower the blood glucose concentration”.
For C[C@H](CS)C(=O)N1CCC[C@H]1C(=O)O [captopril, reference compound], the “diastolic blood pressure (DBP)” value (rats [2]; [9]) was 91.09±1.90 mmHg and 91±1.90 mmHg, the heart rate (rats [2]; [9]) was 413 beats/min and 412 beats/min and the “mean arterial pressure (MAP)” value (rats [2]; [9]) was 110.86±1.71 mmHg. For the same compound, the “systolic blood pressure (SBP)” value (rats [2]; [9]) was 131.35±1.50 mmHg and 130.92±1.50 mmHg and 130.93±1.50 mmHg, the “diastolic blood pressure (DBP)” value (rats [2]; [10]) was 91.19±1.37 mmHg and the heart rate (rats [2]; [10]) was 401.0±6.28 BPM. The “diastolic blood pressure (DBP)” value (rats [2]; [11]) was 93.30±1.58 mmHg, the “mean arterial pressure (MAP)” value (rats [2]; [11]) was 105.07±2.06 mmHg and the heart rate (rats [2]; 30 mg/kg BW, first 10 minutes) was 399.93±6.91 BPM.
In the case of CN(C)C(=N)N=C(N)N [metformin, reference compound], the “decrease in the blood sugar level compared with the control” value ([1]; 25 mg/kg BW IV, 90 minute interval, vs DMSO) is reported as 1.26 mmol/L, the blood glucose concentration ([1]; 25 mg/kg BW intravenously, 90 minute interval) is reported as 5.07 ± 0.089 mmol/L and 5.07 ± 0.09 mmol/L and the blood glucose concentration ([1]; 25 mg/kg BW intravenously, 90 minute interval, listed as Metformin) is reported as 5.06 ± 0.089 mmol/L and 5.07 ± 0.089 mmol/L.
With CCCCCCCC/C=C\CCCCCCCC(=O)O [FR2DBS, oleic acid] the blood glucose concentration [1, 6] was 5.23 ± 0.14 mmol/L, the “effect on blood glucose concentration (in words)” value [1] was “significantly lower than the control” and the “Hypoglycaemic effect compared with control” value [1] was “Significant”. For the same compound, the “diastolic blood pressure (DBP)” value (rats [2]; [9]) was 93.42±1.74 mmHg, the heart rate (rats [2]; [9]) was 389 ± 7.27 beats/min and the “diastolic blood pressure (DBP)” value (rats [2]; [10]) was 93.21±1.33 mmHg. The “mean arterial pressure (MAP)” value (rats [2]; [11]) was 100.43±1.39 mmHg, the “effect on mean arterial blood pressure (in words)” value (rats [2]; 30 mg/kg BW) was “significant decrease” and the “effect on systolic blood pressure (in words)” value (rats [2]; 30 mg/kg BW) was “very low and comparable to the effect caused by captopril”. For the same compound, the “effect on blood glucose level (in words)” value [3] was “able to lower the blood glucose concentration” and the “effect on blood glucose level (in words)” value ([3]; listed as oleic acid) was “able to reduce the post-prandial glucose level”.
In the case of CCCCCCCCCCCCCCCCCCCC [FR1DBE, eicosane], the solubility in alcohol [4] is listed as “soluble in alcohol”, the blood glucose concentration ([1]; 30 mg/kg BW intravenously, 60 minutes interval (fasting region)) is listed as 3.7 ± 0.154 mmol/L and the blood glucose concentration ([1]; 30 mg/kg BW intravenously, 90 minute interval (glycaemic peak), listed as fr1dbe) is listed as 4.71 ± 1.43 mmol/L. The blood insulin level (rats [5]; after 3½ hours of administration (210 minute interval)) was 0.259 ± 0.03 µg/L, the blood insulin level (rats [5]; after the 90 minute interval) was 0.214 ± 0.02 µg/L and the heart rate (rats [2]; [9]) was 386 ± 7.91 beats/min. The “systolic blood pressure (SBP)” value (rats [2]; [9]) was 118.42±1.87 mmHg, the “diastolic blood pressure (DBP)” value (rats [2]; [10]) was 84.0±0.98 mmHg and the “systolic blood pressure (SBP)” value (rats [2]; [10]) was 122.21±1.1 mmHg. The “effect on mean arterial blood pressure (in words)” value (rats [2]; 30 mg/kg BW) was “significantly reduced”, the “effect on systolic blood pressure (in words)” value (rats [2]; 30 mg/kg BW) was “significantly reduced” and the solubility in water (Solubility) was “not soluble in water”.
